PubChem BioAssay AID1745844 (Carcinogenic Potency Database (CPDB), 2022)

System: rodent lifetime carcinogenesis bioassay, tumor incidence TD50
Assay: chronic cancer bioassays in animals – CPDB, compiled studies (AID 1745844)
Settings: mouse, strain B6C3F1, inhaled

**Q.** Which results are given for `C=CC=C`?
**A.** TD50 (females, site: Harderian gland, lesion: adenocarcinoma + adenoma + adenoma, bilateral, dosed 83 weeks, study length 104 weeks): 26.2 mg/kg/day; TD50 (females, site: Harderian gland, lesion: adenoma + adenoma, bilateral, dosed 83 weeks, study length 104 weeks): 26.2 mg/kg/day; TD50 (females, site: Zymbal's gland, lesion: adenoma + carcinoma, dosed 83 weeks, study length 104 weeks): 3540 mg/kg/day; TD50 (females, site: all sites + forestomach + Harderian gland + heart + liver + lung + mammary gland + ovary, lesion: histiocytic sarcoma + malignant lymphoma, mixed type + malignant lymphoma, lymphocytic type + malignant lymphoma, undifferenti, dosed 83 weeks, study length 104 weeks): 6.79 mg/kg/day; TD50 (females, site: all sites + forestomach + heart + liver + lung + mammary gland + ovary, lesion: malignant lymphoma, NOS + squamous-cell papilloma + hemangiosarcoma + hepatocellular adenoma + hepatocellular carcinoma + alveolar, dosed 61 weeks, study length 61 weeks): 53 mg/kg/day; TD50 (females, site: all sites, lesion: hemangioma + hemangiosarcoma, dosed 83 weeks, study length 104 weeks): 35 mg/kg/day; TD50 (females, site: all sites, lesion: hemangiosarcoma, dosed 83 weeks, study length 104 weeks): 44.2 mg/kg/day; TD50 (females, site: all sites, lesion: histiocytic sarcoma + malignant lymphoma, mixed type + malignant lymphoma, lymphocytic type + malignant lymphoma, undifferenti, dosed 83 weeks, study length 104 weeks): 27.4 mg/kg/day; TD50 (females, site: all sites, lesion: histiocytic sarcoma, dosed 83 weeks, study length 104 weeks): 125 mg/kg/day; TD50 (females, site: all sites, lesion: malignant lymphoma, NOS, dosed 61 weeks, study length 61 weeks): 270 mg/kg/day; TD50 (females, site: all sites, lesion: malignant lymphoma, lymphocytic type, dosed 83 weeks, study length 104 weeks): 74.9 mg/kg/day; TD50 (females, site: all sites, lesion: malignant lymphoma, mixed type + malignant lymphoma, lymphocytic type + malignant lymphoma, undifferentiated type + malignant, dosed 83 weeks, study length 104 weeks): 35.2 mg/kg/day; TD50 (females, site: any site (literature study), lesion: several types, types named in the paper, dosed 61 weeks, study length 61 weeks): 41.5 mg/kg/day; TD50 (females, site: any site (literature study), lesion: several types, types named in the paper, dosed 83 weeks, study length 104 weeks): 6.28 mg/kg/day; TD50 (females, site: forestomach, lesion: papilloma, NOS + squamous-cell carcinoma + squamous-cell papilloma, dosed 61 weeks, study length 61 weeks): 462 mg/kg/day; TD50 (females, site: forestomach, lesion: papilloma, NOS + squamous-cell papilloma, dosed 61 weeks, study length 61 weeks): 483 mg/kg/day; TD50 (females, site: forestomach, lesion: squamous-cell carcinoma + squamous-cell papilloma, dosed 61 weeks, study length 61 weeks): 396 mg/kg/day; TD50 (females, site: forestomach, lesion: squamous-cell carcinoma + squamous-cell papilloma, dosed 83 weeks, study length 104 weeks): 83.9 mg/kg/day; TD50 (females, site: forestomach, lesion: squamous-cell carcinoma, dosed 83 weeks, study length 104 weeks): 257 mg/kg/day; TD50 (females, site: forestomach, lesion: squamous-cell papilloma, dosed 61 weeks, study length 61 weeks): 461 mg/kg/day; TD50 (females, site: forestomach, lesion: squamous-cell papilloma, dosed 83 weeks, study length 104 weeks): 126 mg/kg/day; TD50 (females, site: heart + liver + subcutaneous tissue, lesion: hemangiosarcoma, dosed 61 weeks, study length 61 weeks): 147 mg/kg/day; TD50 (females, site: heart, lesion: hemangiosarcoma, dosed 61 weeks, study length 61 weeks): 283 mg/kg/day; TD50 (females, site: heart, lesion: hemangiosarcoma, dosed 83 weeks, study length 104 weeks): 104 mg/kg/day; TD50 (females, site: kidney, lesion: tubule adenoma, dosed 83 weeks, study length 104 weeks): 1060 mg/kg/day; TD50 (females, site: liver, lesion: hepatocellular adenoma + hepatocellular carcinoma + neoplastic nodule, dosed 61 weeks, study length 61 weeks): 1170 mg/kg/day; TD50 (females, site: liver, lesion: hepatocellular adenoma + hepatocellular carcinoma + neoplastic nodule, dosed 83 weeks, study length 104 weeks): 22.8 mg/kg/day; TD50 (females, site: liver, lesion: hepatocellular adenoma + hepatocellular carcinoma, dosed 61 weeks, study length 61 weeks): 1170 mg/kg/day; TD50 (females, site: liver, lesion: hepatocellular adenoma + hepatocellular carcinoma, dosed 83 weeks, study length 104 weeks): 22.8 mg/kg/day; TD50 (females, site: liver, lesion: hepatocellular adenoma, dosed 61 weeks, study length 61 weeks): 1590 mg/kg/day; TD50 (females, site: liver, lesion: hepatocellular adenoma, dosed 83 weeks, study length 104 weeks): 28.5 mg/kg/day; TD50 (females, site: liver, lesion: hepatocellular carcinoma, dosed 83 weeks, study length 104 weeks): 50.5 mg/kg/day; TD50 (females, site: lung, lesion: alveolar/bronchiolar adenoma + alveolar/bronchiolar carcinoma + adenocarcinoma, dosed 83 weeks, study length 104 weeks): 12.4 mg/kg/day; TD50 (females, site: lung, lesion: alveolar/bronchiolar adenoma + alveolar/bronchiolar carcinoma, dosed 61 weeks, study length 61 weeks): 203 mg/kg/day; TD50 (females, site: lung, lesion: alveolar/bronchiolar adenoma + alveolar/bronchiolar carcinoma, dosed 83 weeks, study length 104 weeks): 13.8 mg/kg/day; TD50 (females, site: lung, lesion: alveolar/bronchiolar adenoma, dosed 61 weeks, study length 61 weeks): 259 mg/kg/day; TD50 (females, site: lung, lesion: alveolar/bronchiolar adenoma, dosed 83 weeks, study length 104 weeks): 20.3 mg/kg/day; TD50 (females, site: lung, lesion: alveolar/bronchiolar carcinoma + adenocarcinoma, dosed 83 weeks, study length 104 weeks): 23.9 mg/kg/day; TD50 (females, site: lung, lesion: alveolar/bronchiolar carcinoma, dosed 61 weeks, study length 61 weeks): 227 mg/kg/day; TD50 (females, site: mammary gland, lesion: acinar-cell carcinoma, dosed 61 weeks, study length 61 weeks): 1030 mg/kg/day; TD50 (females, site: mammary gland, lesion: adenoacanthoma, dosed 83 weeks, study length 104 weeks): 87.7 mg/kg/day; TD50 (females, site: mammary gland, lesion: adenocarcinoma + adenoacanthoma + mixed tumor, malignant, dosed 83 weeks, study length 104 weeks): 47.4 mg/kg/day; TD50 (females, site: mammary gland, lesion: adenocarcinoma, dosed 83 weeks, study length 104 weeks): 93.3 mg/kg/day; TD50 (females, site: mammary gland, lesion: mixed tumor, malignant, dosed 83 weeks, study length 104 weeks): 2710 mg/kg/day; TD50 (females, site: ovary, lesion: adenoma + mixed tumor, benign, dosed 83 weeks, study length 104 weeks): 78.9 mg/kg/day; TD50 (females, site: ovary, lesion: adenoma, dosed 83 weeks, study length 104 weeks): 217 mg/kg/day; TD50 (females, site: ovary, lesion: granulosa-cell carcinoma + granulosa-cell tumor, dosed 61 weeks, study length 61 weeks): 370 mg/kg/day; TD50 (females, site: ovary, lesion: granulosa-cell carcinoma, dosed 61 weeks, study length 61 weeks): 7580 mg/kg/day; TD50 (females, site: ovary, lesion: granulosa-cell tumor, benign + granulosa-cell tumor, bilateral, dosed 83 weeks, study length 104 weeks): 98 mg/kg/day; TD50 (females, site: ovary, lesion: granulosa-cell tumor, benign + granulosa-cell tumor, malignant, dosed 83 weeks, study length 104 weeks): 65.4 mg/kg/day; TD50 (females, site: ovary, lesion: granulosa-cell tumor, malignant, dosed 83 weeks, study length 104 weeks): 198 mg/kg/day; TD50 (females, site: ovary, lesion: mixed tumor, benign, dosed 83 weeks, study length 104 weeks): 202 mg/kg/day; TD50 (females, site: subcutaneous tissue, lesion: neurofibrosarcoma + sarcoma, dosed 83 weeks, study length 104 weeks): 128 mg/kg/day; TD50 (females, site: subcutaneous tissue, lesion: sarcoma, dosed 83 weeks, study length 104 weeks): 131 mg/kg/day; TD50 (males, site: Harderian gland, lesion: adenocarcinoma + adenocarcinoma, bilateral, dosed 13 weeks, study length 104 weeks): 63.5 mg/kg/day
